Experimental data: patent US10703727B2, “Method for preparing substituted 3-(2-anilino-1-cyclohexyl-1H-benzimidazol-5-yl)propanoic acid derivatives” (Bayer Pharma Aktiengesellschaft, priority 2015, dated 2020)

How the values were obtained:
[1] = target: T1, IDH1 R132H (Homo sapiens, UniProt O75874, R132H); experiment: Inhibition of IDH1 R132H in a biochemical assay (NADPH consumption, luminescence); conditions: 1.5 nM enzyme, 1 μM NADPH, 250 μM α-KG, 32° C., 30 minutes
Method: NADPH consumption is determined by luminescence.
Test compounds were assayed in a concentration range of 0.002 to 10 μM. The final DMSO concentration was 2.4%.
The luminescence was determined using a luminescence reader (10 seconds measurement time, 1 second integration period, 30% sensitivity). The drop in luminescence is proportional to the activity of mIDH1. IC50 values were determined by interpolation from plots of the relative luminescence against the inhibitor concentration.

[2] = target: T1, IDH1 R132H; experiment: Cellular assay: 2-HG in medium of LN229 R132H cells overexpressing mutated IDH; assay type: cell-based; conditions: 24 hours
Method: Concentrations of (2R)-2-hydroxyglutarate (2HG) were determined in a medium of a cell line having an overexpession of the mutated isocitrate dehydrogenase protein. mIDH catalyses the NADPH-dependent reduction of alpha-ketoglutarate to 2-HG. […] The cells were obtained using trypsin and placed in 96-well titre plates. The cells were incubated overnight at 37° C. in 5% CO2. On the next day, test compounds were added to the cells. The final concentration of DMSO was 0.1% and DMSO controls were used. The titre plates were then placed in an incubator for 24 hours.
2-HG was measured using the method published by Balss et al. (Acta Neuropathol (2012) 124: 883-891). HClO4 was added to each well and the titre plates were centrifuged. Aliquots were removed and incubated with hydroxyglutarate dehydrogenase (HGDH), diaphorase, NAD+ and resazurin. The conversion of resazurin to resorufin was determined by fluorescence spectroscopy at Ex 540 nm Em 600 nm. The increase in the fluorescence signal is proportional to formation of 2-HG. IC50 values were determined by interpolation from plots of the relative fluorescence against the inhibitor concentration.

T1 sequence (O75874 whole entry R132H): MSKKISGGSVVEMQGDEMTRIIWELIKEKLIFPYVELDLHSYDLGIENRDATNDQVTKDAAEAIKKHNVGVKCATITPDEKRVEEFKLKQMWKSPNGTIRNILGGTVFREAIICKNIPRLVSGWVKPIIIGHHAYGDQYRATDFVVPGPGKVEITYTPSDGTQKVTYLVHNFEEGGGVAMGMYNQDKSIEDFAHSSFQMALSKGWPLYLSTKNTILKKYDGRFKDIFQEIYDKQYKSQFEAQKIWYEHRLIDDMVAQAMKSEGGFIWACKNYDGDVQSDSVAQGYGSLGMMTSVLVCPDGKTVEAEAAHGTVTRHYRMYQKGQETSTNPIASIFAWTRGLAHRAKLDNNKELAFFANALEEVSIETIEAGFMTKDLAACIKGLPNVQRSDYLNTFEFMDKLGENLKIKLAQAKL

| Structure (SMILES) | IC50 [1] [nM] | IC50 [2] [nM] |
| --- | --- | --- |
| COC(=O)CCc1ccc2c(c1)nc(Nc1ccc(C(C)C)cc1)n2[C@H]1C[C@@H](C)CC(C)(C)C1 (racemic) [(±) Methyl 3-(2-{[4-(propan-2-yl)phenyl]amino}-1-[(cis)-3,3,5-trimethylcyclohexyl]-1H-benzimidazol-5-yl)propanoate] | 170 | 90 |
| CC(C)Oc1ccc(Nc2nc3cc(CCC(=O)O)ccc3n2[C@H]2C[C@@H](C)CC(C)(C)C2)cc1 (racemic) [(±) 3-(2-{[4-(Propan-2-yloxy)phenyl]amino}-1-[(cis)-3,3,5-trimethylcyclohexyl]-1H-benzimidazol-5-yl)propanoic acid] | 60 | 400 |
| CC(C)Oc1ccc(Nc2nc3cc(CCC(=O)O)ccc3n2C2CCCC(C)(C)C2)cc1 (racemic) [(±) 3-(1-[3,3-Dimethylcyclohexyl]-2-{[4-(propan-2-yloxy)phenyl]amino}-1H-benzimidazol-5-yl)propanoic acid] | 300 | 850 |
| C[C@@H]1C[C@H](n2c(Nc3ccc(C(F)(F)F)cc3)nc3cc(CCC(=O)O)ccc32)CC(C)(C)C1 (racemic) [(±) 3-(2-{[4-(Trifluoromethyl)phenyl]amino}-1-[(cis)-3,3,5-trimethylcyclohexyl]-1H-benzimidazol-5-yl)propanoic acid] | 40 | 70 |
| COC(=O)CCc1ccc2c(c1)nc(Nc1ccc(OC(F)(F)F)cc1)n2[C@H]1C[C@@H](C)CC(C)(C)C1 (racemic) [(±) Methyl 3-(2-{[4-(trifluoromethoxy)phenyl]amino}-1-[(cis)-3,3,5-trimethylcyclohexyl]-1H-benzimidazol-5-yl)propanoate] | 300 | 300 |
| CC(C)c1ccc(Nc2nc3cc(CCC(=O)O)ccc3n2C2CCCC(C)(C)C2)cc1 (racemic) [(±) 3-(1-[3,3-Dimethylcyclohexyl]-2-{[4-(propan-2-yl)phenyl]amino}-1H-benzimidazol-5-yl)propanoic acid] | 50 | 400 |
| CC1(C)CCCC(n2c(Nc3ccc(OC(F)(F)F)cc3)nc3cc(CCC(=O)O)ccc32)C1 (racemic) [(±) 3-(1-[3,3-dimethylcyclohexyl]-2-{[4-(trifluoromethoxy)phenyl]amino}-1H-benzimidazol-5-yl)propanoic acid] | 60 | 850 |
| CC(C)c1ccc(Nc2nc3cc(CCC(=O)O)ccc3n2[C@H]2C[C@@H](C)CC(C)(C)C2)cc1 (racemic) [(±) 3-(2-{[4-(Propan-2-yl)phenyl]amino}-1-[(cis)-3,3,5-trimethylcyclohexyl]-1H-benzimidazol-5-yl)propanoic acid] | 20 | 80 |
